{
  "source": "patent US20240181022A1",
  "about": "“AMURINS LYSINS, AND LYSIN-ANTIMICROBIAL PEPTIDE (AMP) CONSTRUCTS ACTIVE AGAINST GRAM-NEGATIVE BACTERIA” (priority 2021, published 2024)",
  "key": {"P. aeruginosa": {"test_system": "P. aeruginosa", "assay": "Serial passage resistance development study, P. aeruginosa", "assay_type": "cell-based, Pseudomonas aeruginosa", "settings": "P. aeruginosa strain CFS 1292, Day 28"}, "M. kansasii": {"test_system": "M. kansasii", "assay": "MIC against M. kansasii", "assay_type": "cell-based, Mycobacterium kansasii", "settings": "M. kansasi (ATCC 12478); CAAT media"}, "S. maltophilia [1]": {"test_system": "S. maltophilia", "assay": "Time-kill assay in cystic fibrosis patient sputum, S. maltophilia", "assay_type": "cell-based, Stenotrophomonas maltophilia", "description": "(§1) Sputum from 5 cystic fibrosis patients was pooled. The resulting mixture was not filtered, as it was very dense and not amenable to sterilization by filtration. Sputum is known to be a complex mixture of DNA, carbohydrates, and lipids ([…], 2016). As used herein, the term “sputum” refers to the mucus present in the respiratory tract of an animal, such as a human. Sputum may increase in thickness due to the irritation or infection, including bacterial infection, and in some instances, may be expelled by the animal while coughing. In certain instances, cystic fibrosis may be characterized by the presence of a thick, sticky mucus or sputum present in the lungs of cystic fibrosis patients. The activity of GN370, AM1, AM2, AM3, and meropenem was determined in the sputum using a time-kill assay format as disclosed in Zhang et al., Antimicrobial peptide therapeutics for cystic fibrosis, Antimicrobial Agents Chemother. 2005; 49(7):2921-2927. […] Untreated controls were included in addition to pretreatment plating (t=0) for a baseline CFU determination. Activity was also determined in the absence of sputum for comparison to activity observed in the presence of sputum."}, "Achromobacter spp.": {"test_system": "Achromobacter spp.", "assay": "MIC by broth microdilution against Achromobacter spp.", "assay_type": "cell-based", "settings": "Tables 8-12", "experimental": "(§2) MIC values were determined using a modification of the standard broth microdilution reference method defined by the Clinical and Laboratory Standards Institute (CLSI), CLSL. 2015. Methods for Dilution Antimicrobial Susceptibility Tests for Bacteria That Grow Aerobically; Approved Standard-10th Edition. Clinical and Laboratory Standards Institute, Wayne, PA. The modification was based on the replacement of Mueller Hinton Broth with either CAA media (with and without NaCl) or CAA supplemented with 2.5% human serum. MIC is the minimum concentration of peptide sufficient to suppress at least 80% of the bacterial growth compared to control.\n(§3) The MICs for were determined as described below using the broth microdilution method for meropenem, GN370, AM1, AM2, and AM3. The results are shown below in Tables 8-12."}, "A. xylosoxidans": {"test_system": "A. xylosoxidans", "assay": "Time-kill assay in cystic fibrosis patient sputum, A. xylosoxidans", "assay_type": "cell-based, Achromobacter xylosoxidans", "description": "as §1"}, "M. scrofulaceum": {"test_system": "M. scrofulaceum", "assay": "MIC against M. scrofulaceum", "assay_type": "cell-based, Mycobacterium scrofulaceum", "settings": "M. scrofulaceum (ATCC 19981); CAAT media"}, "S. maltophilia [2]": {"test_system": "S. maltophilia", "assay": "Serial passage resistance development study, S. maltophilia", "assay_type": "cell-based, Stenotrophomonas maltophilia", "settings": "S. maltophilia, day 28, triplicate"}, "B. multivorans": {"test_system": "B. multivorans", "assay": "MIC by broth microdilution against B. multivorans", "assay_type": "cell-based, Burkholderia multivorans", "settings": "B. multivorans isolates", "experimental": "as §2\nBased on these nine most prevalent strains, direct lytic agents, including GN370, AM1, AM2, and AM3, were evaluated against various isolates from each of the 9 strains. MICs and MBECs (Example 3) were determined, and a sputum inhibition test was conducted, as described below in Example 5.\nas §3"}, "S. maltophilia [3]": {"test_system": "S. maltophilia"}, "[4]": {"test_system": "Gram-negative bacteria (including P. aeruginosa, E. cloacae, K. pneumoniae, E. coli, and A. baumannii)", "assay": "Inner membrane depolarization (diSC3-5 release)", "assay_type": "cell-based", "settings": "equivalent or superior to melittin, LL37, RI-18, and PMBN", "description": "The mechanism of action of Chp peptides disclosed herein can also be evaluated by measuring the depolarization of the inner membrane of Gram-negative bacteria, including MDR and XDR strains. The inner membrane comprises […] phospholipids such as cardiolipin, phosphatidylglycerol, and phosphatidylserine. This creates a net negative charge at physiological pH, which is believed to enhance the binding of cationic peptides, including the Chp peptides disclosed herein. Upon permeabilization of the outer membrane, the ability of Chp peptides to induce dissipation of the cytoplasmic membrane electrical potential gradient (Ay) may be examined, for example by following the release of 3,3′-dipropylthiadicarbocyanine (diSC3-5) as a function of time compared to an untreated control. DiSC3-5 is a fluorophore that is a caged cation concentrated within the bacterial inner membrane and under the influence of the bacterial membrane electrical potential gradient. At high concentrations, diSC3-5 self-quenches, leading to the suppression of fluorescence. When the inner membrane deteriorates or becomes leaky for cations, including protons, the Δψ dissipates, which leads to a release of diSC3-5 and a subsequent increase in fluorescence. […] Without wishing to be bound by theory, it is believed that the adsorption and binding of Chp peptides to the inner membrane and insertion into the lipid bilayer results in membrane permeabilization and pore/ion channel formation, which is concomitant with the collapse of the membrane's electrical potential."}, "M. smegmatis": {"test_system": "M. smegmatis", "assay": "MIC against M. smegmatis", "assay_type": "cell-based, Mycobacterium smegmatis", "settings": "M. smegmatis (MC 155); CAAT media"}, "B. gladioli": {"test_system": "B. gladioli", "assay_type": "cell-based, Burkholderia gladioli", "settings": "B. gladioli (15); 2-hour treatment", "experimental": "(§4) The MBEC (after 2-hour treatments) was determined as described in Jones and Wozniak, PsI Produced by Mucoid Pseudomonas aeruginosa Contributes to the Establishment of Biofilms and Immune Evasion, Am. Soc. Microbiol. 2017, 8(3):e00864-17. Meropenem and tobramycin were included as controls and were both poorly active, with MBEC90 values of >256 μg/mL (data not shown)."}, "B. cenocepacia": {"test_system": "B. cenocepacia", "assay_type": "cell-based, Burkholderia cenocepacia", "experimental": "as §4"}},
  "note": "Read-outs that look alike come from different tables or passages of the source. Where no end group is shown, it is not given here.",
  "data": [
    {"sequence": "MRLKMARRRYRLPRRRSRRLFSRTALRMHPRNRLRRIMRGGIRF [AM1]", "values": [
      {"measurement": "change in MIC over serial passage", "setting": "P. aeruginosa", "value": "no significant changes"},
      {"measurement": "MIC", "setting": "M. kansasii", "value": 2, "unit": "µg/mL"},
      {"measurement": "effect of sputum on antibacterial activity", "setting": "S. maltophilia [1]; 10% CF sputum vs no sputum", "value": "none of GN370, AM1, AM2, and AM3 was inhibited"},
      {"measurement": "Log10 CFU/mL of sputum", "setting": "S. maltophilia [1]; absence of sputum, 1 hr", "value": "2.3 Log10 CFU/mL of sputum"},
      {"measurement": "Log10 CFU/mL of sputum", "setting": "S. maltophilia [1]; absence of sputum, 3 hr", "value": "2.3 Log10 CFU/mL of sputum"},
      {"measurement": "Log10 CFU/mL of sputum", "setting": "S. maltophilia [1]; absence of sputum, 24 hr", "value": "2.3 Log10 CFU/mL of sputum"},
      {"measurement": "Log10 CFU/mL of sputum", "setting": "S. maltophilia [1]; presence of 10% sputum, 1 hr", "value": "2.3 Log10 CFU/mL of sputum"},
      {"measurement": "Log10 CFU/mL of sputum", "setting": "S. maltophilia [1]; presence of 10% sputum, 3 hr", "value": "2.3 Log10 CFU/mL of sputum"},
      {"measurement": "Log10 CFU/mL of sputum", "setting": "S. maltophilia [1]; presence of 10% sputum, 24 hr", "value": "2.3 Log10 CFU/mL of sputum"},
      {"measurement": "killing by 1 hour, maintained at 24 hours", "setting": "S. maltophilia [1]; time-kill", "value": "complete killing"},
      {"measurement": "activity (MIC) against Achromobacter spp.", "setting": "Achromobacter spp.", "value": "highly active"},
      {"measurement": "effect of sputum on antibacterial activity", "setting": "A. xylosoxidans; 10% CF sputum vs no sputum", "value": "none of GN370, AM1, AM2, and AM3 was inhibited"},
      {"measurement": "Log10 CFU/mL of sputum", "setting": "A. xylosoxidans; absence of sputum, 1 hr", "value": "2.3 Log10 CFU/mL of sputum"},
      {"measurement": "Log10 CFU/mL of sputum", "setting": "A. xylosoxidans; absence of sputum, 3 hr", "value": "2.3 Log10 CFU/mL of sputum"},
      {"measurement": "Log10 CFU/mL of sputum", "setting": "A. xylosoxidans; absence of sputum, 24 hr", "value": "2.3 Log10 CFU/mL of sputum"},
      {"measurement": "Log10 CFU/mL of sputum", "setting": "A. xylosoxidans; presence of 10% sputum, 1 hr", "value": "2.3 Log10 CFU/mL of sputum"},
      {"measurement": "Log10 CFU/mL of sputum", "setting": "A. xylosoxidans; presence of 10% sputum, 3 hr", "value": "2.3 Log10 CFU/mL of sputum"},
      {"measurement": "Log10 CFU/mL of sputum", "setting": "A. xylosoxidans; presence of 10% sputum, 24 hr", "value": "2.3 Log10 CFU/mL of sputum"},
      {"measurement": "killing by 1 hour, maintained at 24 hours", "setting": "A. xylosoxidans; time-kill", "value": "complete killing"},
      {"measurement": "MIC", "setting": "M. scrofulaceum", "value": 0.5, "unit": "µg/mL"},
      {"measurement": "change in MIC over serial passage", "setting": "S. maltophilia [2]", "value": "no increase in MIC"},
      {"measurement": "MIC50", "setting": "B. multivorans", "value": 128, "unit": "µg/mL"},
      {"measurement": "MIC90", "setting": "B. multivorans", "value": "> 128", "unit": "µg/mL"},
      {"measurement": "AM1 MIC50", "setting": "S. maltophilia [3]", "value": 0.5, "unit": "µg/mL"},
      {"measurement": "AM1 MIC90", "setting": "S. maltophilia [3]", "value": 1, "unit": "µg/mL"},
      {"measurement": "MIC50", "setting": "S. maltophilia [3]", "value": 0.5, "unit": "µg/mL"},
      {"measurement": "MIC90", "setting": "S. maltophilia [3]", "value": 1, "unit": "µg/mL"},
      {"measurement": "MIC Range", "setting": "S. maltophilia [3]; MDR S. maltophilia isolates (n = 8), in µg/mL", "value": "0.5-1"},
      {"measurement": "MIC50", "setting": "S. maltophilia [3]; S. maltophilia isolates", "value": 0.5, "unit": "µg/mL"},
      {"measurement": "MIC90", "setting": "S. maltophilia [3]; S. maltophilia isolates", "value": 1, "unit": "µg/mL"},
      {"measurement": "MIC Range", "setting": "S. maltophilia [3]; S. maltophilia isolates, in µg/mL", "value": "0.016-1"},
      {"measurement": "MIC", "setting": "S. maltophilia [3]; S. maltophilia test organism of the sputum time-kill assay", "value": "AM1 (MIC = 0.5)"},
      {"measurement": "activity (MIC) against S. maltophilia isolates", "setting": "S. maltophilia [3]; all tested isolates, Tables 8-12", "value": "highly active"},
      {"measurement": "AM1 MIC Range", "setting": "S. maltophilia [3]; carbapenem-resistant S. maltophilia isolates (n = 23), in µg/mL", "value": "0.016-1"},
      {"measurement": "inner membrane depolarization (diSC3-5)", "setting": "[4]", "value": "dose-dependent increase in membrane depolarization"},
      {"measurement": "MIC", "setting": "M. smegmatis", "value": 4, "unit": "µg/mL"},
      {"measurement": "MBEC50", "setting": "B. gladioli", "value": 4, "unit": "µg/mL"},
      {"measurement": "MBEC90", "setting": "B. gladioli", "value": 16, "unit": "µg/mL"},
      {"measurement": "MBEC Range", "setting": "B. gladioli", "value": "0.5 to 32", "unit": "µg/mL"},
      {"measurement": "MBEC50", "setting": "B. cenocepacia", "value": 16, "unit": "µg/mL"},
      {"measurement": "MBEC90", "setting": "B. cenocepacia", "value": 32, "unit": "µg/mL"},
      {"measurement": "MBEC Range", "setting": "B. cenocepacia", "value": "2 to 32", "unit": "µg/mL"}
    ]}
  ]
}
